For 40 compounds, EC50 results are on record in patent US8778923B2, “GLP-1 receptor modulators” (Receptos, Inc., priority 2011, dated 2014).

The EC50 is the concentration needed to bring the measured effect to its halfway point.

The target of the experiment is T1, GLP-1R (Homo sapiens, UniProt P43220).
T1 construct: host or cells: CRE-bla CHO-K1
T1 sequence (P43220 24-463): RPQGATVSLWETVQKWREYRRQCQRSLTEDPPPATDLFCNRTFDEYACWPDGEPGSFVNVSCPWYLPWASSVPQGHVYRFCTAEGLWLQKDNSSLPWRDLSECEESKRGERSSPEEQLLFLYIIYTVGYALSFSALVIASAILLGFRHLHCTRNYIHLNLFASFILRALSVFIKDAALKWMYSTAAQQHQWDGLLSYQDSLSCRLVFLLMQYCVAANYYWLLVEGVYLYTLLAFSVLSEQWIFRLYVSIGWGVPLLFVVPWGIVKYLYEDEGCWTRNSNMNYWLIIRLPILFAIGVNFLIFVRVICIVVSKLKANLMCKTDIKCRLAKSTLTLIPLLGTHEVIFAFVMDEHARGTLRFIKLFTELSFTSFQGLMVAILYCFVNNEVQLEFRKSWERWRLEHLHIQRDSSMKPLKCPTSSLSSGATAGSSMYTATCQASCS
T1 sequence (P01275 100-127 partner limits assumed): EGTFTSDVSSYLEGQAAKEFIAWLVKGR
In words: EC20 GLP-1(9-36) PAM cAMP assay: dose response of compound in the presence of fixed concentration of GLP-1(9-36). The format is cell-based. The following applies: GLP-1R CRE-bla CHO-K1 cells, compound dose response in presence of fixed concentration of GLP-1(9-36). As to the method: EC20 GLP-1(9-36) PAM cAMP Assay: Dose Response of Compound in the Presence of Fixed Concentration of GLP-1 (9-36).
GLP-1R CRE-bla CHO-K1 cells cultured in growth medium (DMEM-High glucose, 10% dialyzed FBS, 0.1 mM NEAA, 25 mM Hepes, 100 U/mL penicillin/100 μg/mL streptomycin, 5 μg/mL Blasticidin, 600 μg/mL Hygromycin) were tryspsinized and plated in suspension into 384 well white flat bottom plates at 5000 cells/well in 12 μL assay buffer (Hanks Balanced Salt solution, 10 mM Hepes, 0.1% BSA, pH 7.4). A 5× compound dose response curve (12-point) was generated in assay buffer containing 1.5 mM IBMX, 12.5% DMSO. GLP-1(9-36) was diluted to 4.2 μM in assay buffer containing 1.5 mM IBMX and 12.5% DMSO. The 5× compound dose response was added (3 μL), followed by 0.5 μL of GLP-1(9-36) and cells were incubated for 30 min at 37° C. Direct detection of cAMP was carried out using DiscoveRx HitHunter cAMP kit according to manufacturer's instructions and luminescence was read using a SpectraMax M5 plate reader. Luminescence was converted to total cAMP using a cAMP standard curve and data was analyzed by non-linear regression to determine the EC50 and Emax.
GLP-1(7-36): […]-NH2. GLP-1(9-36): […]-NH2. GLP-1(7-36) was purchased from GenScript. GLP-1(9-36) was purchased from Biopeptide Co., Inc.
On the technique in general: Cyclic AMP is a second messenger, typically raised through Gs and lowered through Gi signalling.
Turning to `CCCCCCCOc1ccc(-c2nc(-c3ccc(C[C@H](NC(=O)c4ccc(C(C)(C)C)cc4)C(=O)O)cc3)no2)cn1` [Compound 51], the EC50 lay within 2500 to 5000 nM.

As for `CN1CCCc2c(-c3nc(-c4ccc(C[C@H](NC(=O)c5ccc(C(C)(C)C)cc5)C(=O)O)cc4)no3)cccc21` [Compound 52], the EC50 is 800 to 2500 nM.

As for `CN(C)c1cccc(-c2nc(-c3ccc(C[C@H](NC(=O)c4ccc(C(C)(C)C)cc4)C(=O)O)cc3)no2)c1` [Compound 53], the EC50 fell in the range of 2500 to 5000 nM.

Take `CC(C)(C)c1ccc(C(=O)N[C@@H](Cc2ccc(-c3noc(-c4ccc(S(N)(=O)=O)cc4)n3)cc2)C(=O)O)cc1` [Compound 54]: the EC50 is 2500 to 5000 nM.

Take `CN(CCO)c1ccc(-c2nc(-c3ccc(C[C@H](NC(=O)c4ccc(C(C)(C)C)cc4)C(=O)O)cc3)no2)cc1` [Compound 55]: the EC50 lay within 2500 to 5000 nM.

With `CC(C)(C)Oc1ccc(-c2nc(-c3ccc(C[C@H](NC(=O)c4ccc(C(C)(C)C)cc4)C(=O)O)cc3)no2)cc1` [Compound 56], the EC50 was in the range of 2500 to 5000 nM.

Consider `Cc1cc(C)cc(-c2nc(-c3ccc(C[C@H](NC(=O)c4ccc(C(C)(C)C)cc4)C(=O)O)cc3)no2)c1` [Compound 57], for which the EC50 was 2500 to 5000 nM.

For the compound `Cc1ccc(-c2nc(-c3ccc(C[C@H](NC(=O)c4ccc(C(C)(C)C)cc4)C(=O)O)cc3)no2)cc1C` [Compound 58], the EC50 is 2500 to 5000 nM.

As for `CC(C)Sc1ccc(-c2nc(-c3ccc(C[C@H](NC(=O)c4ccc(C(C)(C)C)cc4)C(=O)O)cc3)no2)cc1` [Compound 59], the EC50 lay in the range of 2500 to 5000 nM.

For the compound `CC(C)(C)c1ccc(C(=O)N[C@@H](Cc2ccc(-c3noc(-c4ccc5ccccc5c4)n3)cc2)C(=O)O)cc1` [Compound 60], the EC50 was in the range of 2500 to 5000 nM.

For `CC(C)(C)c1ccc(C(=O)N[C@@H](Cc2ccc(-c3noc(-c4ccc(C(N)=O)cc4)n3)cc2)C(=O)O)cc1` [Compound 61], the concentration giving a half-maximal response (EC50) lay in the range of 2500 to 5000 nM.

As for `CC(C)(C)c1ccc(C(=O)N[C@@H](Cc2ccc(-c3noc(-c4ccc(N)cc4)n3)cc2)C(=O)O)cc1` [Compound 62], the EC50 lay in the range of 2500 to 5000 nM.

As for `CNc1ccc(-c2nc(-c3ccc(C[C@H](NC(=O)c4ccc(C(C)(C)C)cc4)C(=O)O)cc3)no2)cc1` [Compound 63], the EC50 fell in the range of 800 to 2500 nM.

For the compound `CC(C)(C)c1ccc(C(=O)N[C@@H](Cc2ccc(-c3noc(-c4ccc5[nH]ccc5c4)n3)cc2)C(=O)O)cc1` [Compound 64], the EC50 was in the range of 800 to 2500 nM.

Turning to `CC(C)Nc1ccc(-c2nc(-c3ccc(C[C@H](NC(=O)c4ccc(C(C)(C)C)cc4)C(=O)O)cc3)no2)cc1` [Compound 65], the EC50 lay within 2500 to 5000 nM.

Consider `CC(C)(C)c1ccc(C(=O)N[C@@H](Cc2ccc(-c3noc(-c4cccc5c4CCNC5)n3)cc2)C(=O)O)cc1` [Compound 66], for which the EC50 lay within 2500 to 5000 nM.

With `CCCCCCCOc1ccc(-c2nc(-c3ccc(C[C@H](NC(=O)c4ccc(C(C)(C)C)cc4)C(=O)NCC(=O)O)cc3)no2)cc1` [Compound 67, (S)-2-(2-(4-(tert-butyl)benzamido)-3-(4-(5-(4-(heptyloxy)phenyl)-1,2,4-oxadiazol-3-yl)phenyl)propanamido)acetic acid], the EC50 lay in the range of 800 to 2500 nM.

With `CC(C)(C)c1ccc(C(=O)N[C@@H](Cc2ccc(-c3noc(-c4ccc(N5CCCCC5)cc4)n3)cc2)C(=O)NCC(=O)O)cc1` [Compound 68], the EC50 lay within 2500 to 5000 nM.

As to `CCCCCCCOc1ccc(-c2nc(-c3ccc(C[C@H](NC(=O)c4ccc(C(C)(C)C)cc4)C(=O)NS(C)(=O)=O)cc3)no2)cc1` [Compound 69], the EC50 lay in the range of 5000 to 10000 nM.

`CCCCCCCOc1ccc(-c2nc(-c3ccc(C[C@H](NC(=O)c4ccc(C(C)(C)C)cc4)C(=O)NC(C)(C)C(=O)O)cc3)no2)cc1` [Compound 70]: the EC50 was in the range of 5000 to 10000 nM.

Take `CCCCCCCOc1ccc(-c2nc(-c3ccc(C(NC(=O)c4ccc(C(C)(C)C)cc4)C(=O)O)cc3)no2)cc1` (stereo not shown) [Compound 71]: the EC50 lay in the range of 2500 to 5000 nM.

Take `CC(C)(C)c1ccc(C(=O)NC(C(=O)O)c2ccc(-c3noc(-c4ccc(N5CCCCC5)cc4)n3)cc2)cc1` (stereo not shown) [Compound 72]: the EC50 fell in the range of 5000 to 10000 nM.

`CCCCCCCOc1ccc(-c2nc(-c3ccc(CC[C@H](NC(=O)c4ccc(C(C)(C)C)cc4)C(=O)O)cc3)no2)cc1` [Compound 73]: the EC50 was 800 to 2500 nM.

For `CC(C)(C)c1ccc(C(=O)N[C@@H](CCc2ccc(-c3noc(-c4ccc(N5CCCCC5)cc4)n3)cc2)C(=O)O)cc1` [Compound 74], the EC50 is 2500 to 5000 nM.

Consider `CC(C)(C)c1ccc(C(=O)N[C@H](CC(=O)O)Cc2ccc(-c3noc(-c4ccc(N5CCCCC5)cc4)n3)cc2)cc1` [Compound 75], for which the EC50 lay within 2500 to 5000 nM.

With `CCCCCCCOc1ccc(-c2nnc(-c3ccc(C[C@H](NC(=O)c4ccc(C(C)(C)C)cc4)C(=O)O)cc3)o2)cc1` [Compound 76], the concentration for a half-maximal effect (EC50) is 800 to 2500 nM.

As to `CCCCCCCOc1ccc(-c2coc(-c3ccc(C[C@H](NC(=O)c4ccc(C(C)(C)C)cc4)C(=O)O)cc3)n2)cc1` [Compound 77], the EC50 lay in the range of 800 to 2500 nM.

`CCCCCCCOc1ccc(-c2nc(-c3ccc(C[C@H](NC(=O)c4ccc(C(C)(C)C)cc4)C(=O)O)cc3)co2)cc1` [Compound 78]: the EC50 lay in the range of 800 to 2500 nM.

In the case of `CCCCCCCOc1ccc(-c2csc(-c3ccc(C[C@H](NC(=O)c4ccc(C(C)(C)C)cc4)C(=O)O)cc3)n2)cc1` [Compound 79], the EC50 lay in the range of 800 to 2500 nM.

Turning to `CCCCCCCOc1ccc(-c2nc(-c3ccc(C[C@H](NC(=O)c4ccc(C(C)(C)C)cc4)C(=O)O)cc3)cs2)cc1` [Compound 80], the EC50 lay within 800 to 2500 nM.

With `CCCCCCCOc1ccc(-c2cnc(-c3ccc(CC(NC(=O)c4ccc(C(C)(C)C)cc4)C(=O)O)cc3)s2)cc1` (stereo not shown) [Compound 81], the EC50 lay within 5000 to 10000 nM.

Regarding `CCCCCCCOc1ccc(-c2ncc(-c3ccc(CC(NC(=O)c4ccc(C(C)(C)C)cc4)C(=O)O)cc3)s2)cc1` (stereo not shown) [Compound 82], the EC50 is 800 to 2500 nM.

With `CCCCCCCOc1ccc(-c2nnc(-c3ccc(C[C@H](NC(=O)c4ccc(C(C)(C)C)cc4)C(=O)O)cc3)s2)cc1` [Compound 83], the EC50 was 800 to 2500 nM.

Consider `CCCCCCCOc1ccc(-c2nc(-c3ccc(C[C@H](NC(=O)c4ccc(C(C)(C)C)cc4)C(=O)O)cc3)ns2)cc1` [Compound 84], for which the EC50 was in the range of 800 to 2500 nM.

As to `CCCCCCCOc1ccc(-c2cnc(-c3ccc(C[C@H](NC(=O)c4ccc(C(C)(C)C)cc4)C(=O)O)cc3)nc2)cc1` [Compound 85, (S)-2-(4-(tert-butyl)benzamido)-3-(4-(5-(4-(heptyloxy)phenyl)pyrimidin-2-yl)phenyl)propanoic acid], the EC50 lay in the range of 800 to 2500 nM.

In the case of `CCCCCCCOc1ccc(-c2cnc(-c3ccc(C[C@H](NC(=O)c4ccc(OC)cc4)C(=O)O)cc3)nc2)cc1` [Compound 86], the EC50 fell in the range of 800 to 2500 nM.

Regarding `CCCCCCCOc1ccc(-c2cnc(-c3ccc(C[C@H](NC(=O)c4ccc(Cl)cc4)C(=O)O)cc3)nc2)cc1` [Compound 87], the EC50 lay in the range of 800 to 2500 nM.

In the case of `CCCCCCCOc1ccc(-c2cnc(-c3ccc(C[C@H](NC(=O)Cc4ccccc4)C(=O)O)cc3)nc2)cc1` [Compound 88], the EC50 lay within 5000 to 10000 nM.

Take `CCCCCCCOc1ccc(-c2cnc(-c3ccc(C[C@H](NC(=O)c4ccc(CC)cc4)C(=O)O)cc3)nc2)cc1` [Compound 89]: the EC50 is 800 to 2500 nM.

As for `CCCCCCCOc1ccc(-c2cnc(-c3ccc(C[C@H](NC(=O)c4ccc(N5CCCC5)cc4)C(=O)O)cc3)nc2)cc1` [Compound 90], the EC50 fell in the range of 2500 to 5000 nM.
